According to US20240034729A9, “HETEROCYCLIC COMPOUND, INTERMEDIATE, PREPARATION METHOD THEREFOR AND APPLICATION THEREOF” (WUHAN LL SCIENCE AND TECHNOLOGY DEVELOPMENT CO., LTD., priority 2018, published 2024):
Like-named read-outs stand apart in the source and are kept apart here.

Columns and labels:
[1] = target: hP2X3 (human purinergic P2X receptor subtype 3) (Homo sapiens (Human), UniProt P56373); experiment: FLIPR calcium assay, hP2X3 expressed in HEK293 cells; assay type: cell-based; conditions: read-out: P2X3 IC50
Sequence of hP2X3 (human purinergic P2X receptor subtype 3) (P56373 whole entry): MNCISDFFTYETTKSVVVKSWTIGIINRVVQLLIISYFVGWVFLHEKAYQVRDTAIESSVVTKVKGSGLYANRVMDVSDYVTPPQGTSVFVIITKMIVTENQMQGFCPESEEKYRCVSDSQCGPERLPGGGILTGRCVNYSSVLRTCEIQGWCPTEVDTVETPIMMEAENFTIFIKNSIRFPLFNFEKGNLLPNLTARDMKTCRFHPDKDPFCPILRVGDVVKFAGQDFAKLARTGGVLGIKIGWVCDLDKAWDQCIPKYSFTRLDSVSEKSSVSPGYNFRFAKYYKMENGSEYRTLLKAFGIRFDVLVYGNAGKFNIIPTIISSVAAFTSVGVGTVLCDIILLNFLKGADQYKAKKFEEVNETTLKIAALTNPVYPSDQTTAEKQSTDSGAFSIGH

[2] = target: hP2X2/3 (heterodimeric receptors formed by human purinergic P2X receptors subtype 2 and subtype 3) (Homo sapiens (Human), UniProt P56373+Q9UBL9); experiment: FLIPR calcium assay, hP2X2/3 expressed in HEK293 cells (P2X2/3 receptor selectivity); assay type: cell-based; conditions: for IC50: HEK293 cells expressing hP2X2/3, agonist BZ-ATP 5 μM, unit inferred
Sequence of hP2X2/3 (heterodimeric receptors formed by human purinergic P2X receptors subtype 2 and subtype 3) (P56373 whole entry): as above
Sequence of hP2X2/3 (heterodimeric receptors formed by human purinergic P2X receptors subtype 2 and subtype 3) (Q9UBL9 whole entry): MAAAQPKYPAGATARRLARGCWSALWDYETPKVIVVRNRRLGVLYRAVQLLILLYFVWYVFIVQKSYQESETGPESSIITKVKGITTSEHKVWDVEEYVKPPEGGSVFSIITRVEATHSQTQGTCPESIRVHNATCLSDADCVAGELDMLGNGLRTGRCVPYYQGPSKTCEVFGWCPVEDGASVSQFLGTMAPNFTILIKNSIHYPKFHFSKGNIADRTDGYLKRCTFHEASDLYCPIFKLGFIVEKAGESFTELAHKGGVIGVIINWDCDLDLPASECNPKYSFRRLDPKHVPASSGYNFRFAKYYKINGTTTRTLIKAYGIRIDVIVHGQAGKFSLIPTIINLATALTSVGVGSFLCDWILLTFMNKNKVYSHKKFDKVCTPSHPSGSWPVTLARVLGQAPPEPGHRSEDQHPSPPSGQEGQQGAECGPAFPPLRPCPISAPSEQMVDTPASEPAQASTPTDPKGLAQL

[3] = HEK293 cells expressing hP2X3, agonist BZ-ATP 2.5 μM, class symbols

Compound | IC50 [1] [nM] | also measured
CNC(=O)c1cc(F)c(-c2oc3cc(C)cnc3c2C[C@H]2CN(C(=O)OC)CCO2)c(F)c1 [Compound 54, methyl (S)-2-((2-(2,6-difluoro-4-(methylcarbamoyl)phenyl)-6-methylfurano[3,2-b]pyridin-3-yl)methyl)morpholine-4-carboxylate] | < 10 | Folds of selectivity [2]: A (key: A: folds of selectivity >1000; B: 200< folds of selectivity ≤1000; C: folds of selectivity ≤200); IC50 [2]: > 60000 nM
COC(=O)N1CCO[C@@H](Cc2c(-c3c(F)cc(-n4cnnn4)cc3F)nc3cc(C)ccn23)C1 [Compound 58] |  | Folds of selectivity [2]: A (key: A: folds of selectivity >1000; B: 200< folds of selectivity ≤1000; C: folds of selectivity ≤200); IC50 [2]: > 60000 nM
COC(=O)N1CCO[C@@H](Cc2c(-c3c(F)cc(NC(=O)CC4(C(=O)O)CC4)cc3F)nc3cc(C)ccn23)C1 [Compound 61, (S)-1-(2-((3,5-difluoro-4-(3-((4-(carbomethoxy<methoxycarbonyl>)morpholin-2-yl)methyl)-7-methylimidazo [1,2-a]pyridin-2-yl)phenyl)amino)-2-carbonylethyl)cyclopropanecarboxylic acid] | < 10 | Folds of selectivity [2]: A (key: A: folds of selectivity >1000; B: 200< folds of selectivity ≤1000; C: folds of selectivity ≤200); IC50 [2]: > 60000 nM
COC(=O)N1CCO[C@@H](Cc2c(-c3c(F)cc(-n4ccc(C(C)(C)O)n4)cc3F)nc3cc(C)ccn23)C1 [Compound 126, methyl (S)-2-((2-(2,6-difluoro-4-(3-(2-hydroxypropan-2-yl)-1H-pyrazol-1-yl)phenyl)-7-methylimidazo[1,2-a]pyridin-3-yl)methyl)morpholine-4-carboxylate] | 10 to 50 | 
COC(=O)N1CCO[C@@H](Cc2c(-c3c(F)cc(-n4cc(N)cn4)cc3F)nc3cc(C)ccn23)C1 [Compound 127, methyl (S)-2-((2-(4-(4-amino-1H-pyrazol-1-yl)-2,6-difluorophenyl)-7-methylimidazo[1,2-a]pyridin-3-yl)methyl)morpholine-4-carboxylate] | < 10 | 
COC(=O)N1CCO[C@@H](Cc2c(-c3c(F)cc(-n4cc(O)cn4)cc3F)nc3cc(C)ccn23)C1 [Compound 128, methyl (S)-2-((2-(2,6-difluoro-4-(4-hydroxy-1H-pyrazol-1-yl)phenyl)-7-methylimidazo[1,2-a]pyridin-3-yl)methyl)morpholine-4-carboxylate] |  | IC50 [1, 3]: 200 to 5000 nM
COC(=O)N1CCO[C@@H](Cc2c(-c3c(F)cc(-n4cc(OC)cn4)cc3F)nc3cc(C)ccn23)C1 [Compound 129, methyl (S)-2-((2-(2,6-difluoro-4-(4-methoxy-1H-pyrazol-1-yl)phenyl)-7-methylimidazo[1,2-a]pyridin-3-yl)methyl)morpholine-4-carboxylate] | 10 to 50 | 
COC(=O)N1CCO[C@@H](Cc2c(-c3c(F)cc(-n4ccc(C5(C(=O)O)CC5)n4)cc3F)nc3cc(C)ccn23)C1 [Compound 130, (S)-1-(1-(3,5-difluoro-4-(3-((4-(carbomethoxy<methoxycarbonyl>)morpholin-2-yl)methyl)-7-methylimidazo[1,2-a]pyridin-2-yl)phenyl)-1H-pyrazol-3-yl)cyclopropane-1-carboxylic acid] |  | IC50 [1, 3]: 200 to 5000 nM
COC(=O)N1CCO[C@@H](Cc2c(-c3c(F)cc(-n4ccc(C5(O)CC5)n4)cc3F)nc3cc(C)ccn23)C1 [Compound 131] | 10 to 50 | 
COC(=O)N1CCO[C@@H](Cc2c(-c3c(F)cc(-n4ccnc4)cc3F)nc3cc(F)ccn23)C1 [Compound 132] | < 10 | 
COC(=O)N1CCO[C@@H](Cc2c(-c3c(F)cc(-n4ccc(S(N)(=O)=O)c4)cc3F)nc3cc(C)ccn23)C1 [Compound 134, methyl (S) 2-((2-(2,6-difluoro-4-(3-sulfamoyl-1H-pyrrol-1-yl)phenyl)-7-methylimidazo[1,2-a]pyridin-3-yl)methyl)morpholine-4-carboxylate] | 10 to 50 | 
COC(=O)N1CCO[C@@H](Cc2c(-c3c(F)cc(-n4ccc(C(C)(C)O)c4)cc3F)nc3cc(C)ccn23)C1 [Compound 135] | < 10 | 
COC(=O)N1CCO[C@@H](Cc2c(-c3c(F)cc(-n4ccc(C5(C(=O)O)CC5)c4)cc3F)nc3cc(C)ccn23)C1 [Compound 136] | 50 to 200 | 
COC(=O)N1CCO[C@@H](Cc2c(-c3c(F)cc(-n4ccc(C#N)c4)cc3F)nc3cc(C)ccn23)C1 [Compound 137] | 10 to 50 | 
CCC(=O)N1CCO[C@@H](Cc2c(-c3c(F)cc(-c4ccc(C#N)s4)cc3F)nc3cc(C)ccn23)C1 [Compound 140, (S)-5-(3,5-difluoro-4-(7-methyl-3-((4-propionylmorpholin-2-yl)methyl)imidazo[1,2-a]pyridin-2-yl)phenyl)thiophene-2-carbonitrile] | 50 to 200 | 
COC(=O)N1CCO[C@@H](Cc2c(-c3c(F)cc(-n4ccnn4)cc3F)nc3cc(C)ccn23)C1 [Compound 141, methyl (S)-2-((2-(2,6-difluoro-4-(1H-1,2,3-triazol-1-yl)phenyl)-7-methylimidazo[1,2-a]pyridin-3-yl)methyl)morpholine-4-carboxylate] | 10 to 50 | 
COC(=O)N1CCO[C@@H](Cc2c(-c3c(F)cc(-n4cncn4)cc3F)nc3cc(C)ccn23)C1 [Compound 142, methyl (S)-2-((2-(2,6-difluoro-4-(1H-1,2,4-triazol-1-yl)phenyl)-7-methylimidazo[1,2-a]pyridin-3-yl)methyl)morpholine-4-carboxylate] | < 10 | 
COC(=O)N1CCO[C@@H](Cc2c(-c3c(F)cc(-n4cnnc4)cc3F)nc3cc(C)ccn23)C1 [Compound 143, methyl (S)-2-((2-(2,6-difluoro-4-(4H-1,2,4-triazol-4-yl)phenyl)-7-methylimidazo[1,2-a]pyridin-3-yl)methyl)morpholine-4-carboxylate] | < 10 | 
COC(=O)N1CCO[C@@H](Cc2c(-c3c(F)cc(-c4ccc(C(=O)O)cn4)cc3F)nc3cc(C)ccn23)C1 [Compound 145] | 50 to 200 | 

Compound | IC50 [1] [nM] | also measured
COC(=O)N1CCO[C@@H](Cc2c(-c3c(F)cc(NC(C)=O)cc3F)nc3cc(F)ccn23)C1 [Compound 148] | < 10 | 
COC(=O)N1CCO[C@@H](Cc2c(-c3c(F)cc(NC(C)=O)cc3F)nc3cc(CF)ccn23)C1 [Compound 150, methyl (S)-2-((2-(4-acetamido-2,6-difluorophenyl)-7-(fluoromethyl)imidazo[1,2-a]pyridin-3-yl)methyl)morpholine-4-carboxylate] | < 10 | 
COC(=O)N1CCO[C@@H](Cc2c(-c3c(F)cc(NS(C)(=O)=O)cc3F)nc3cc(C)ccn23)C1 [Compound 152] | < 10 | 
COC(=O)N1CCO[C@@H](Cc2c(-c3c(F)cc(NC(C)=O)cc3F)nc3cc(C(F)(F)F)ccn23)C1 [Compound 153, methyl (S)-2-((2-(4-acetamido-2,6-difluorophenyl)-7-(trifluoromethyl)imidazo[1,2-a]pyridin-3-yl)methyl)morpholine-4-carboxylate] | 50 to 200 | 
CCC(=O)N1CCO[C@@H](Cc2c(-c3c(F)cc(NC(C)=O)cc3F)nc3cc(Cl)ccn23)C1 [Compound 154] | < 10 | 
CCC(=O)N1CCO[C@@H](Cc2c(-c3c(F)cc(NC(C)=O)cc3F)nc3cc(CF)ccn23)C1 [Compound 155] | < 10 | 
CCC(=O)N1CCO[C@@H](Cc2c(-c3c(F)cc(NC(C)=O)cc3F)nc3cc(C)ccn23)C1 [Compound 156] | < 10 | 
CCC(=O)N1CCO[C@@H](Cc2c(-c3c(F)cc(NC(C)=O)cc3F)nc3cc(C(F)F)ccn23)C1 [Compound 157] | < 10 | 
COC(=O)N1CCO[C@@H](Cc2c(-c3c(F)cc(NC(=O)CC(C)C(N)=O)cc3F)nc3cc(C)ccn23)C1 (stereo partly shown) [Compound 170] | 50 to 200 | 
COC(=O)N1CCO[C@@H](Cc2c(-c3c(F)cc(S(N)(=O)=O)cc3Cl)nc3cc(Cl)ccn23)C1 [Compound 179, methyl (S)-2-((7-chloro-2-(2-chloro-6-fluoro-4-sulfamoylphenyl)imidazo[1,2-a]pyridin-3-yl)methyl)morpholine-4-carboxylate] | 0.4 | 
COC(=O)N1CCO[C@@H](Cc2c(-c3cc(F)c(S(N)(=O)=O)cc3Cl)nc3cc(C)ccn23)C1 [Compound 180, methyl (S)-2-((2-(2-chloro-5-fluoro-4-sulfamoylphenyl)-7-methylimidazo[1,2-a]pyridin-3-yl)methyl)morpholine-4-carboxylate] | 0.2 | 
COC(=O)N1CCO[C@@H](Cc2c(-c3c(F)cc(S(N)(=O)=O)cc3F)nc3cc(Cl)c(F)cn23)C1 [Compound 183, methyl (S)-2-((7-chloro-2-(2,6-difluoro-4-sulfamoylphenyl)-6-fluoroimidazo[1,2-a]pyridin-3-yl)methyl)morpholine-4-carboxylate] | 5.5 | 
CNC(=O)c1ccnc(Cc2c(-c3c(F)cc(S(N)(=O)=O)cc3F)nc3cc(C)ccn23)c1 [Compound 185] | 13 | 
Cc1ccn2c(Cc3cc(C#N)ccn3)c(-c3c(F)cc(S(N)(=O)=O)cc3F)nc2c1 [Compound 186] | 65 | 
COC(=O)N1CCC[C@@H](Cc2c(-c3c(F)cc(S(N)(=O)=O)cc3F)nc3cc(C)ccn23)C1 [Compound 187] | 50 | 
COC(=O)N1CCC[C@@H](Cc2c(-c3c(F)cc(S(N)(=O)=O)cc3F)nc3cc(Cl)ccn23)C1 [Compound 188] | 9 | 
COC(=O)N1CCO[C@@H](Cc2c(-c3ccc(S(N)(=O)=O)nc3Cl)nc3cc(C)ccn23)C1 [Compound 190] | < 10 | 
COC(=O)N1CCO[C@@H](Cc2c(-c3c(F)cc(-n4cnc(C#N)c4)cc3F)nc3cc(C)ccn23)C1 [Compound 192, methyl (S)-2-((2-(4-(4-cyano-1H-imidazol-1-yl)-2,6-difluorophenyl)-7-methylimidazo[1,2-a]pyridin-3-yl)methyl)morpholine-4-carboxylate] | 10 to 50 | 
(S,E)-4-((3,5-difluoro-4-(3-((4-(methoxycarbonyl)-morpholin-2-yl)-methyl)-7-methylimidazo[1,2-a]pyri din-2-yl)-phenyl)-amino)-4-oxobutyl-2-enoic acid [Compound 27] | < 10 | 
